# Measurements reported in US7405081B2, “Methods and kits for identifying scavengers of reactive oxygen species (ROS)” (priority 2001, dated 2008).
# Marks after values point to notes of the source that are not given here.
# Experiments:
# katA-gfp fusion = settings: AG6 in MG/L, 30-120 μM H2O2, 2 hours
# Experimental: To determine if H2O2 can induce the katA expression, AG6 was grown in MG/L liquid medium overnight at 28° C. The cells were harvested and resuspended in fresh MG/L liquid medium to a final concentration of OD600=0.5. Aliquots (2 ml) of the cultures were transferred into sterile tubes, and H2O2 was added to the tubes to final concentrations of 30 μM, 60 μM and 120 μM. The cell suspensions were incubated at 28° C. for 2 hours. Then 1 ml of each cell suspension was centrifuged, washed and resuspended in the Laemmli (1970) sample buffer, and subjected to Western blot as described later.
# To determine whether the expression of katA can be induced by H2O2, like some of other bacterial catalases (Loewen, 1997), AG6 was treated with low concentrations of H2O2 (30-120 μM) in liquid MG/L medium and the katA-gfp expression levels were then determined.
# [1] = system: katA-gfp fusion in AG6 cells; assay: Extracellular catalase added to IB plates, GFP expression of AG6 cells; assay type: cell-based, Agrobacterium tumefaciens; settings: 1 or 5 microgram per ml in IB plates
# Experimental: Catalase purchased from Sigma was added into IB plates at a final concentration of 1 or 5 microgram per ml. AG6 cells (carrying the katA-gfp fusion) were then grown on the IB plate. […] To ensure that the catalase in the IB medium was still active, hydrogen peroxide was dropped onto the catalase-containing plate. Air bubbles were instantly visible in the catalase-containing plate; no air bubble was found in the control catalase-free IB plate. […] Therefore, it can be concluded that extracellular catalase could not remove the intracellular hydrogen peroxide.
# [2] = Catalase activity assay in whole bacterial cells (Amplex Red Catalase Assay Kit); assay type: cell-based, Agrobacterium tumefaciens; settings: whole cells grown on IB plates
# Experimental: Catalase activity assay: The catalase activity in whole bacterial cells was determined as previously described (Maciver and Hansen, 1996) except using the Amplex Red Catalase Assay Kit (Molecular Probes Inc., USA). Briefly, A. tumefaciens strains were grown at 28° C. for 24 hr on IB plates. The cells were harvested, washed and resuspended at OD600=1.0 in 50 mM phosphate-buffer (pH 7.4). For the strains with the wild type katA [A348, AG6 (pXQ9), and AG6 (pXQ23)], 100 μl cell suspension of each sample was incubated with 50 μl 40 μM H2O2 at time intervals of 0, 30 sec, 1 min and 2 min.
# For the strains with the katA mutants [AG6, AG6 (pXQ11), AG6 (pXQ22), AG6 (pXQ26) and AG6 (pXQ27)], 100 μl cell suspension of each sample was incubated with 50 μl 5 μM H2O2 at time intervals of 0, 1, 2, and up to 6 min. The amount of H2O2 left after degradation by the bacterial catalase was then determined by adding 50 μl Amplex Red reagent N-acetyl-3, 7-dihydroxyphenoxazine at 25 μM and 0.4 U/ml horse radish peroxidase provided by the kit. The fluorometric assay was conducted by the same procedure as described above for the measurement of intracellular H2O2. The cell suspensions without the added H2O2 were used as the blank. Solutions of crystalline bovine catalase (Sigma) were used to standardize this assay.
# The catalase activity in whole bacterial cells was determined as described above in Example 1 (“Catalase activity assay”).
# aopB-gfp = aopB-gfp expression in strain CGI1 (specificity control); assay type: cell-based, Agrobacterium tumefaciens; settings: pXQ9 introduced into CGI1, IB (pH 5.5)
# Experimental: To study the katA gene expression in different genetic backgrounds, A. tumefaciens strains A348, AG6, AG6 (pSW172), AG6 (pXQ9), A613, CGI1 and CGI1 (pXQ9) were grown at 28° C. for 24 hours on IB (pH 5.5) agar plates. The fluorescence of each strain was determined as described above.
# To determine if katA could specifically repress katA-gfp, pXQ9 was introduced into a different mini-Tn5 transposon mutant strain CGI1, which contained the transposon insertion at a chromosomal gene aopB and could produce bright green fluorescence under UV light.
# [3] = Peroxidase activity staining of cell extracts; assay type: biochemical, Agrobacterium tumefaciens; settings: same cell extracts
compound,measurement,setting,value
"OO [H2O2, hydrogen peroxide]",katA-gfp expression levels in presence of H2O2,katA-gfp fusion,increased significantly
Catalase,Repression of katA-gfp expression by catalase added to the medium,[1],did not repress katA-gfp expression
"KatA: Agrobacterium tumefaciens catalase encoded by katA; putative protein of 723 amino acids, 78.7 kDa",Catalase activity,"[2]; gene on plasmid in AG6, driven by katA and lac promoters (pXQ23, pXQ26, pXQ27)",77145.5 ± 440.3 unit/10^8 cells
same,Catalase activity,"[2]; gene on plasmid in AG6, driven by katA promoter (pXQ9, pXQ11, pXQ22)",3997.3 ± 459.1 unit/10^8 cells
same,Catalase activity,[2]; strain AG6 (katA disrupted by mini-Tn5),175.2 ± 20.2^c unit/10^8 cells
same,Catalase activity,[2]; wild type strain A348,1486.2 ± 149.5 unit/10^8 cells
same,Repression of aopB-gfp expression,aopB-gfp,did not repress
same,Peroxidase activity associated with the catalase activity bands,[3],no peroxidase activity
